Measured values as given in patent publication US9073813B2, “Process for the preparation of protoescigenin” (INSTYTUT FARMACEUTYCZNY, priority 2011, dated 2015).

Test: Thermal stability of the crystalline form (X-ray diffraction over temperature loop 25° C.→30 min at 110° C.→25° C.)
Assay type: physicochemical
Experimental: Protoescigenin monohydrate is stable under ambient conditions, up to 100° C. X-ray diffraction measurements of monohydrate were done at the following temperature loop: 25° C.→30 min at 110° C.→25° C.
X-ray powder diffraction (XRPD) studies were performed by means of the MiniFlex diffractometer (Rigaku Coporation, Tokyo Japan) using CuKα radiation (λ=1.54056 Å) with following parameters: • Scanning range 2θ: from 3° to 40° • Scanning speed: 0.5°/min • Measurement step: 2θ: 0.02° • Measurement temperature: ambient temperature • Detector: scintillator

## CC1(C)CC2C3=CCC4[C@@]5(C)CC[C@H](O)[C@](C)(CO)C5CC[C@@]4(C)[C@]3(C)C[C@@H](O)[C@@]2(CO)[C@@H](O)[C@@H]1O (some centres unmarked) [Protoescigenin monohydrate, protoescigenin monohydrate]
After heating for 30 min at 110° C., loop 25° C.→110° C.→25° C.
  form change on heating (X-ray diffraction): changes to a different form, called form V
Solid state, ambient conditions
  stable under ambient conditions, up to (temperature): up to 100 °C
